Converted amounts (≈) assume the structure as drawn.

The term MIC denotes the least concentration at which growth counts as inhibited.

Some test systems named below: Candida albicans; Staphylococcus aureus; Escherichia coli; Escherichia coli D21; Acinetobacter baumannii; Staphylococcus capitis 1; Enterococcus faecalis; Escherichia coli O111:B4; Escherichia coli BW25113.
Common to all, as to assay: ≥ marks a high value that may be exact or a test limit, other limits are often not marked, values filed in µg/mL are converted to µM
Experiment [1] concerns Staphylococcus aureus USA 100.
The subject of experiment [2] is Enterococcus faecalis KACC 11304.
Experiment [3] deals with Candida albicans ATCC 90028.
The test system of experiment [4] is Pseudomonas aeruginosa ATCC 27853.
The subject of experiment [5] is Escherichia coli KACC 1039.
In experiment [6] the test system is Bacillus subtilis CCT 2471.
Experiment [7] relates to Staphylococcus aureus USA 300.
Experiment [8] relates to Klebsiella pneumoniae KCTC 2242.
For experiment [9], the system named is Pseudomonas aeruginosa ATCC 9027.
Experiment [10] relates to Klebsiella pneumoniae ATCC 13883.
Experiment [11] concerns Pseudomonas aeruginosa KACC 10259.
For experiment [12], the system named is Candida albicans KACC 30071.
Experiment [13] deals with Enterobacter cloacae ATCC 23355.
Experiment [14] has as its system Bacillus subtilis KACC 10196.
The subject of experiment [15] is Staphylococcus saprophyticus.
The test system of experiment [16] is Staphylococcus aureus ATCC 6535.
The test system of experiment [17] is Staphylococcus aureus KACC 10196.
In experiment [18] the test system is Escherichia coli CCT 1371.
Experiment [19] concerns Bifidobacterium longum subsp. infantis.
Experiment [20] has as its system Staphylococcus aureus ATCC 25923.
The subject of experiment [21] is Escherichia coli ATCC 25922.
For experiment [22], the system named is Saccharomyces cerevisiae AS2.430.
Experiment [23] has as its system Enterococcus faecium E007.
Experiment [24] relates to Staphylococcus aureus ATCC 29231.
Experiment [25] deals with Staphylococcus aureus MW2.
Experiment [26] has as its system Acinetobacter baumannii ATCC 7978.
In experiment [27] the test system is Staphylococcus epidermidis ATCC 12228.
In experiment [28] the test system is Corynebacterium jeikeium ATCC BAA-949.
The test system of experiment [29] is Staphylococcus aureus Cowan 1.
Experiment [30] has as its system Yersinia pseudotuberculosis YPIII.
For experiment [31], the system named is Staphylococcus aureus ATCC 29213.
Experiment [32] concerns Acinetobacter baumannii ATCC 19606.
Experiment [33] deals with Pseudomonas aeruginosa PA14.
Experiment [34] deals with Klebsiella pneumoniae WGLW2.
Experiment [35] deals with Enterococcus faecium ATCC 19434.
Experiment [36] deals with Enterobacter cloacae ATCC 13047.
For experiment [37], the system named is Klebsiella pneumoniae ATCC 700603.
Experiment [38] relates to Escherichia coli BW25113 ΔsbmA.

Consider `CC[C@H](C)[C@H](NC(=O)[C@H](CO)NC(=O)[C@@H](NC(=O)[C@H](CCCCN)NC(=O)[C@H](Cc1ccccc1)NC(=O)[C@@H]1CCCN1)[C@@H](C)CC)C(=O)N[C@@H](Cc1cnc[nH]1)C(=O)N[C@@H](CC(C)C)C(N)=O` [PFKISIHL], for which the MIC in experiment [1] was not below 50 µM; in experiment [2], 16 µM (≈ 15.3 µg/mL); in [3], not below 50 µM; in experiment [4] it was 10.5 µM (≈ 9.99 µg/mL); in experiment [5], 8 µM (≈ 7.63 µg/mL); in experiment [6], 10.5 µM (≈ 9.99 µg/mL). Further, the minimal inhibitory concentration (MIC) against Candida albicans is 2.62 µM (≈ 2.5 µg/mL); in [7], not below 50 µM; in experiment [8], 8 µM (≈ 7.63 µg/mL); in experiment [9] it was 50 µM (≈ 47.7 µg/mL); in experiment [10], 10.5 µM (≈ 9.99 µg/mL); in [11] it was 8 µM (≈ 7.63 µg/mL). For the same molecule, the minimum inhibitory concentration (MIC) is 16 µM (≈ 15.3 µg/mL) in experiment [12]; 10.5 µM (≈ 9.99 µg/mL) in experiment [13]; 4 µM (≈ 3.81 µg/mL) in [14]; 15.7 µM (≈ 15 µg/mL) in experiment [15]; 10.5 µM (≈ 9.99 µg/mL) in experiment [16]; 16 µM (≈ 15.3 µg/mL) in [17]. The molecule further gave an MIC in experiment [18] of 2.62 µM (≈ 2.5 µg/mL).
Consider `CC[C@H](C)[C@H](NC(=O)[C@@H]1CCCN1C(=O)[C@@H](N)CCC(=O)O)C(=O)N1CCC[C@H]1C(=O)N[C@@H](CC(C)C)C(=O)N[C@@H](CCC(=O)O)C(=O)N[C@@H](CO)C(=O)N[C@@H](CCCN=C(N)N)C(=O)N[C@@H](CCC(=O)O)C(=O)N[C@@H](CCC(=O)O)C(=O)O` [EPIPLESREE], for which the MIC in experiment [19] is not below 2500 µM; with Staphylococcus aureus it was 2090 µM (≈ 2500 µg/mL); with Escherichia coli, 2090 µM (≈ 2500 µg/mL).
Turning to `CC(C)C[C@H](NC(=O)[C@H](CCC(=O)O)NC(=O)[C@@H](N)CCCCN)C(=O)N[C@@H](CCC(=O)O)C(=O)N[C@@H](CCC(=O)O)C(=O)N[C@@H](CCCCN)C(=O)O` [KELEEK], the MIC in [20] is 403 µM (≈ 313 µg/mL); in experiment [21], 807 µM (≈ 625 µg/mL); in experiment [22], not below 25800 µM.
Consider `CC[C@H](C)[C@H](NC(=O)[C@H](Cc1c[nH]c2ccccc12)NC(=O)[C@H](CCCCN)NC(=O)[C@@H](N)CC(C)C)C(=O)NCC(=O)N[C@@H](CCCCN)C(=O)N[C@@H](Cc1c[nH]c2ccccc12)C(=O)N[C@H](C(=O)N[C@@H](Cc1c[nH]c2ccccc12)C(=O)N[C@@H](CCCN=C(N)N)C(=O)N[C@H](C(=O)NCC(=O)N[C@@H](Cc1c[nH]c2ccccc12)C(=O)N[C@@H](CC(N)=O)C(=O)N[C@@H](Cc1c[nH]c2ccccc12)C(=O)N[C@@H](CCCN=C(N)N)C(=O)O)C(C)C)[C@@H](C)CC` [LKWIGKWIWRVGWNWR], for which the MIC in experiment [23] was not below 58.6 µM; in [24], not below 58.6 µM; in [25], 29.3 µM (≈ 64 µg/mL); in [26], not below 58.6 µM.
With `CC[C@H](C)[C@H](N)C(=O)N[C@H](C(=O)NCC(=O)N1CCC[C@H]1C(=O)N[C@H](C(=O)N[C@@H](CC(C)C)C(=O)NCC(=O)N[C@@H](CC(C)C)C(=O)N[C@H](C(=O)NCC(=O)N[C@@H](CO)C(=O)N[C@@H](C)C(=O)N[C@@H](CC(C)C)C(=O)NCC(=O)NCC(=O)N[C@@H](CC(C)C)C(=O)N[C@@H](CC(C)C)C(=O)N[C@@H](CCCCN)C(=O)N[C@@H](CCCCN)C(=O)N[C@H](C(N)=O)[C@@H](C)CC)C(C)C)C(C)C)[C@@H](C)CC` [IIGPVLGLVGSALGGLLKKI], the MIC in experiment [27] was 12.5 µM (≈ 24 µg/mL); in [28], 8 µM (≈ 15.3 µg/mL); against Escherichia coli D21, not below 50 µM; in [4] it was more than 50 µM; in the experiment with Acinetobacter baumannii it was not below 50 µM; with Staphylococcus capitis 1, 12.5 µM (≈ 24 µg/mL). Also, the MIC in the experiment on Enterococcus faecalis was not below 50 µM; against Escherichia coli O111:B4 it was not below 50 µM; in experiment [21] it was more than 50 µM; in [29], 12.5 µM (≈ 24 µg/mL); in experiment [30] it was 12.5 µM (≈ 24 µg/mL); in [31] it was 12.5 µM (≈ 24 µg/mL). Also, the minimum inhibitory concentration (MIC) in experiment [32] is 12.5 µM (≈ 24 µg/mL).
For the molecule `CC[C@H](C)[C@H](NC(=O)[C@H](Cc1c[nH]c2ccccc12)NC(=O)[C@H](CCCCN)NC(=O)[C@@H](N)CC(C)C)C(=O)NCC(=O)N[C@@H](CCCCN)C(=O)N[C@@H](CCCCN)C(=O)N[C@H](C(=O)N[C@@H](Cc1c[nH]c2ccccc12)C(=O)N[C@@H](CCCN=C(N)N)C(=O)N[C@H](C(=O)NCC(=O)O)C(C)C)[C@@H](C)CC` [LKWIGKKIWRVG], the MIC in experiment [33], in experiment [24], in experiment [34] and in experiment [26] was not below 86.3 µM throughout.
`CC[C@H](C)[C@H](NC(=O)[C@H](CCCN=C(N)N)NC(=O)[C@@H](N)Cc1c[nH]c2ccccc12)C(=O)N[C@@H](CCCN=C(N)N)C(=O)N[C@@H](CCCN=C(N)N)C(=O)N[C@@H](CCCN=C(N)N)C(=O)N[C@@H](Cc1c[nH]c2ccccc12)C(=O)N1CCC[C@H]1C(=O)N[C@@H](CCCN=C(N)N)C(=O)N[C@@H](CC(C)C)C(=O)N1CCC[C@H]1C(=O)N[C@@H](CCCN=C(N)N)C(=O)N1CCC[C@H]1C(=O)N[C@@H](CCCN=C(N)N)C(=O)N[C@@H](Cc1c[nH]c2ccccc12)C(=O)N[C@@H](CCCN=C(N)N)C(=O)O` [WRIRRRWPRLPRPRWR]: the MIC in experiment [4] was 32 µM (≈ 75 µg/mL); in the experiment on Escherichia coli BW25113 it was 2 µM (≈ 4.69 µg/mL); in [35] it was not below 32 µM; in experiment [36], 8 µM (≈ 18.8 µg/mL); in experiment [20], 12 µM (≈ 28.1 µg/mL); in experiment [37], 2 µM (≈ 4.69 µg/mL). Also, the MIC in experiment [32] and in [38] was 4 µM (≈ 9.38 µg/mL) in each case.
